Experimental data reported in US20050261349A1, “Medicine for prevention or treatment of diabetes” (priority 2004, published 2005).

System: C57BL/KsJ db/db mice
Test: Hypoglycemic effect of single or combined oral administration in db/db mice (plasma glucose concentration)
Format: in vivo, mouse
Details: 14th day, 2 hours after oral administration; for Decreasing rate (of plasma glucose concentration vs control group): calculated from group means vs control group; for Plasma glucose concentration: mean±standard deviation for 6 mice, control group 519 ± 69
Protocol: As test animals, C57BL/KsJ db/db mice were used, which were created in Jackson Laboratory (USA) and known as an obesity, hyperlipemia, hyperinsulinemia, and insulin-resistant model (Journal of Clinical Investigation, 85, pp 962-967, 1990). Blood was collected from the orbital venous plexus of each 7-week-old db/db mouse using a heparin-treated capillary tube, and centrifugation was performed to collect plasma. Thereafter, the plasma glucose concentration (Glucose CII-Test Wako (Wako Pure Chemical Industries, Ltd.)), the insulin concentration (Lebis Insulin Kit: for mouse-T (SHIBAYAGI)), and the triglyceride concentration (Triglyceride E-Test Wako (Wako Pure Chemical Industries, Ltd.)) were measured for classification. The classification was performed so that distribution of each measurement item is uniform for each group by block allocation based on many variables in which the plasma glucose concentration is most emphasized using the measured values of the plasma glucose concentration, the body weight, the insulin concentration, and the triglyceride concentration. […] Two hours after the administration, blood was collected from the orbital venous plexus, and the plasma thereof was collected to measure the plasma glucose concentration. […] Each plasma glucose concentration is expressed as mean±standard deviation for 6 mice of each group. Each decreasing rate is calculated from ((mean of plasma glucose concentration of control group)−(mean of plasma glucose concentration of each group))/(mean of plasma glucose concentration of control group)×100, while each relative index is calculated from (mean of plasma glucose concentration of each group)/(mean of plasma glucose concentration of control group).

Row | SMILES | Relative index (mean plasma glucose of group / mean of control group) | Decreasing rate (of plasma glucose concentration vs control group) | Decreasing rate (of plasma glucose concentration vs control group) (listed as glibenclamide) | Plasma glucose concentration | Decreasing rate (of plasma glucose concentration vs control group) (listed as sodium 2,2-dichloro-12-(4-chlorophenyl)-dodecanoate)
1 | COc1ccc(Cl)cc1C(=O)NCCc1ccc(S(=O)(=O)NC(=O)NC2CCCCC2)cc1 [Glibenclamide] | 0.79 | 21% | 21% | 412 ± 153 mg/dL | 
2 | O=C([O-])C(Cl)(Cl)CCCCCCCCCCc1ccc(Cl)cc1.[Na+] [sodium 2,2-dichloro-12-(4-chlorophenyl)-dodecanoate] | 0.49 | 51% |  | 253 ± 75 mg/dL | 51%
